Measured values published in ChEMBL document CHEMBL1143451, “The neuroprotective action of JNK3 inhibitors based on the 6,7-dihydro-5H-pyrrolo[1,2-a]imidazole scaffold” (Bioorg Med Chem Lett, 2005).

Key:
[1] = target: T1, Mitogen-activated protein kinase 10 (Homo sapiens, UniProt P53779); test: Inhibitory activity against c-Jun N-terminal kinase 3 at a concentration of 1.0 uM
[2] = target: T2, Mitogen-activated protein kinase 14 (Homo sapiens, UniProt Q16539); test: Inhibitory activity against p38 at a concentration of 1.0 uM
[3] = target: T1, Mitogen-activated protein kinase 10; test: Inhibitory concentration against c-Jun N-terminal kinase 3 at a concentration of 1.0 uM
[4] = target: T2, Mitogen-activated protein kinase 14; test: Inhibitory concentration against p38 at a concentration of 1.0 uM

T1 sequence (P53779 whole entry): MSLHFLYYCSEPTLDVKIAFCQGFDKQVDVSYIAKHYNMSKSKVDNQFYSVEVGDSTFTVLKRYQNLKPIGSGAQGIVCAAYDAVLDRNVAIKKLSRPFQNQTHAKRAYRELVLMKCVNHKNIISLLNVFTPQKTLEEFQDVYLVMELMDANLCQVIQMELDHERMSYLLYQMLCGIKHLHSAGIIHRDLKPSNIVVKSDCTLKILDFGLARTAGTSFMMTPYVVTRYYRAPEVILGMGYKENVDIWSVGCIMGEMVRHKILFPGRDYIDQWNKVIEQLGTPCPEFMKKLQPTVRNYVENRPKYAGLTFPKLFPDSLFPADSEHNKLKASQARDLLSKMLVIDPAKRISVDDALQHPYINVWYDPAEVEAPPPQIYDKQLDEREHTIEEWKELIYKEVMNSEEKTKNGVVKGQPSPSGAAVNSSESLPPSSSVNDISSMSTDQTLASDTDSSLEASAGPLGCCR
T2 sequence (Q16539 whole entry): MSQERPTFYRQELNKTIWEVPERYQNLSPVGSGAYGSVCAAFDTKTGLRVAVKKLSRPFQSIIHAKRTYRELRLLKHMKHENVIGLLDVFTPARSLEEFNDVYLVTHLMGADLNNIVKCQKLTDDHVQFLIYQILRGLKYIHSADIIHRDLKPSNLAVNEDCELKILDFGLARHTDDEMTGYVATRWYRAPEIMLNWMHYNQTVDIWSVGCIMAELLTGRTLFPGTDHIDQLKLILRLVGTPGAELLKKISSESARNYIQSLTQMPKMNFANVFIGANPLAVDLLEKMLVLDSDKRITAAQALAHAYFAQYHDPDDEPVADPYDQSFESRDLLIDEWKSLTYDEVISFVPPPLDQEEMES

IC50 [1] [nM] | IC50 [2] [nM] | IC50 [3] [nM] | IC50 [4] [nM] | SMILES
233 | 217 | – | – | CCCNc1nccc(-c2c(-c3ccc(F)cc3)nc3n2[C@@H](COCc2ccc(OC)cc2)CC3)n1
270 | 116 | – | – | COc1ccc(COC[C@H]2CCc3nc(-c4ccc(F)cc4)c(-c4ccnc(N)n4)n32)cc1
2.5 | 28 | – | – | CCCNc1nccc(-c2c(-c3ccc(F)cc3)nc3n2[C@H](CO)CC3)n1
– | – | 130 | – | O=C(NCCCn1cnc(-c2ccc(F)cc2)c1-c1ccncc1)c1ccccc1
– | – | – | 46 | [N-]=[N+]=Nc1cccc(-c2ncn(CCCNC(=O)c3ccc(I)cc3)c2-c2ccncc2)c1
61.2 | 295 | – | – | COc1ccc(COC[C@@H]2CCc3nc(-c4ccc(F)cc4)c(-c4ccnc(N)n4)n32)cc1
10.9 | 54 | – | – | CCCNc1nccc(-c2c(-c3ccc(F)cc3)nc3n2[C@H](COCc2ccc(OC)cc2)CC3)n1
3 | 31 | – | – | CCCNc1nccc(-c2c(-c3ccc(F)cc3)nc3n2[C@@H](CO)CC3)n1
